According to ChEMBL document CHEMBL1275495, “Clinical isolates of Aspergillus species remain fully susceptible to voriconazole in the post-voriconazole era” (2008):
≈ marks a conversion by molar mass, not a printed value.

How the values were obtained:
Format in all cases: functional
Aspergillus fumigatus = experiment: Antifungal activity against Aspergillus fumigatus clinical isolate obtained from invasive aspergillosis patient after 48 hrs by CLSI method
Aspergillus niger = experiment: Antifungal activity against Aspergillus niger clinical isolate obtained from invasive aspergillosis patient after 48 hrs by CLSI method
Aspergillus = experiment: Antifungal activity against Aspergillus species after 48 hrs by CLSI method
Aspergillus flavus = experiment: Antifungal activity against Aspergillus flavus clinical isolate obtained from invasive aspergillosis patient after 48 hrs by CLSI method
Aspergillus terreus = experiment: Antifungal activity against Aspergillus terreus clinical isolate obtained from invasive aspergillosis patient after 48 hrs by CLSI method
Aspergillus sp. [1] = experiment: Antifungal activity against Aspergillus sp. clinical isolate obtained from invasive aspergillosis patient selected after drug exposure after 48 hrs by CLSI method
Aspergillus sp. [2] = experiment: Antifungal activity against Aspergillus sp. selected after drug exposure after 48 hrs by CLSI method
Aspergillus sp. [3] = experiment: Antifungal activity against Aspergillus sp. clinical isolate obtained from invasive aspergillosis patient after 48 hrs by CLSI method

`C[C@@H](c1ncncc1F)[C@](O)(Cn1cncn1)c1ccc(F)cc1F` [VORICONAZOLE] gave an Activity (Aspergillus fumigatus) of 0.46 µg/mL, an Activity (Aspergillus niger) of 0.76 µg/mL and an MIC (Aspergillus) of 0.39 µg/mL (≈ 1.12 µM). The MIC50 (Aspergillus) was 0.25 µg/mL (≈ 0.716 µM), the MIC90 (Aspergillus) was 0.5 µg/mL (≈ 1.43 µM) and the Activity (Aspergillus flavus) was 0.76 µg/mL. For the same molecule, the Activity (Aspergillus terreus) was 0.76 µg/mL, the MIC (Aspergillus sp. [1]) was 0.61 µg/mL (≈ 1.75 µM) and the MIC50 (Aspergillus sp. [1]) was 0.5 µg/mL (≈ 1.43 µM). For the same molecule, the MIC90 (Aspergillus sp. [1]) was 1 µg/mL (≈ 2.86 µM), the MIC (Aspergillus sp. [2]) was 0.4 µg/mL (≈ 1.15 µM) and the MIC50 (Aspergillus sp. [2]) was 0.25 µg/mL (≈ 0.716 µM). The MIC90 (Aspergillus sp. [2]) was 0.5 µg/mL (≈ 1.43 µM), the MIC (Aspergillus sp. [3]) was 0.57 µg/mL (≈ 1.63 µM) and the MIC50 (Aspergillus sp. [3]) was 0.5 µg/mL (≈ 1.43 µM). For the same molecule, the MIC90 (Aspergillus sp. [3]) was 1 µg/mL (≈ 2.86 µM).
